Columns and labels:
HepG2 cells = assay: Fat accumulation test in hepatocytes (oil red staining, oleic acid); format: cell-based; settings: for Relative fat accumulation level (%): 0.2 mM oleic acid, 24 hours, DMSO=100%
Description: Normal human subcutaneous preadipocytes were precultured using the growth medium in the same manner as in Example 1. The cells were detached using 0.25% trypsin-EDTA, seeded at 10,000 cells/100 μL/well to a 96-well plate using a growth medium, and cultured overnight in a CO2 incubator. On the next day, the medium was replaced with 100 μL of a differentiation medium supplemented with varying concentrations of steviol (12.5, 25, 50, 100 or 200 μg/mL, dissolved in 0.1% DMSO (final concentration)). The cells were cultured for 10 days in a CO2 incubator to induce their differentiation into adipocytes. On the fourth and seventh days after the differentiation induction, the medium was replaced with a fresh medium (100 μL) having the same composition as above. A differentiation medium supplemented with 25 mM LiCl (Cat. No. SML0559, Sigma-Aldrich Co., LLC) was used as a positive control, and a differentiation medium supplemented with 0.1% DMSO (final concentration) was used as a negative control. Cells cultured in a growth medium were used as an untreated control (Untreated). The cells thus cultured were subjected to oil red staining. Specifically, the cells were washed twice with 100 μL of DPBS (Cat. No. 14190250, Thermo Fisher Scientific Inc.). Then, the cells were fixed (room temperature, 10 min) in 100 μL of a 10% formalin solution (Cat. No. 061-00416, FUJIFILM Wako Pure Chemical Corp.). The cells were washed twice with 100 μL of DPBS, then incubated for 1 minute in 100 μL of 60% 2-propanol (Cat. No. 166-04836, FUJIFILM Wako Pure Chemical Corp.) that replaced the medium, and stained for 15 minutes in 100 μL of an oil red staining solution (Cat. No. 00625, Sigma-Aldrich Co., LLC) that replaced the 2-propanol solution. The cells were washed once with 100 μL of 60% 2-propanol and washed twice with 100 μL of DPBS. Then, cell images were taken in 100 μL of DPBS. After subsequent replacement with 120 μL of 100% 2-propanol, oil red was extracted by incubation for 5 minutes, and 100 μL of the extracts was transferred to each well of a fresh 96-well plate. Absorbance (520 nm) was measured using a plate reader (VARIOSKAN FLASH, Thermo Fisher Scientific Inc.), and a relative fat accumulation level was calculated. Significant difference of differentiation non-induced group vs differentiation induced group (negative control group) was tested (two-tailed), and P<0.05 was regarded as having significant difference. Also, significant difference of negative control group vs steviol addition group/positive control group was tested (two-tailed) by the Dunnett test, and P<0.05 was regarded as having significant difference. […] HepG2 cells were precultured using the growth medium in the same manner as in Example 5. The cells were detached using 0.25% trypsin-EDTA, seeded at 30,000 cells/100 μL/well to a 96-well plate using the growth medium, and cultured overnight in a CO2 incubator. On the next day, the medium was replaced with 100 μL of a test medium (DMEM (high glucose) supplemented with 0.2 mM oleic acid (Cat. No. 03008, Sigma-Aldrich), 10% FBS and 1% penicillin-streptomycin) supplemented with varying concentrations of steviol (12.5, 25, 50, 100 or 200 μg/mL, dissolved in 0.1% DMSO (final concentration)). The cells were cultured for 24 hours in a CO2 incubator. A test medium supplemented with 2 mM metformin (Cat. No. M2009, Tokyo Chemical Industry Co., Ltd.) was used as a positive control (Metformin), and a vehicle control composed of a test medium supplemented with 0.1% DMSO (final concentration) was used as a negative control (DMSO). Cells cultured in a test medium containing no oleic acid was used as an untreated control (Untreated). The cells thus cultured were subjected to oil red staining in the same manner as in Example 3, followed by photographing and calculation of a relative fat accumulation level. […]

[1] = system: adipocytes differentiated from normal human subcutaneous preadipocytes; assay: Lipolysis test in adipocytes (free glycerol in culture supernatant); format: cell-based; settings: for Relative lipolysis level (%): 24 hours, DMSO=100%
Description: Normal human subcutaneous preadipocytes were precultured using the growth medium in the same manner as in Example 1. The cells were detached using 0.25% trypsin-EDTA, seeded at 10,000 cells/100 μL/well to a 96-well plate using the growth medium, and cultured overnight in a CO2 incubator. On the next day, the medium was replaced with the differentiation medium (100 μL), and the cells were cultured for 10 days in a CO2 incubator to induce their differentiation into adipocytes. On the fourth and seventh days after the differentiation induction, the medium was replaced with a fresh differentiation medium (100 μL). Next, the medium was replaced with a differentiation medium supplemented with varying concentrations of steviol (10, 30 or 100 μg/mL, dissolved in 0.1% DMSO (final concentration)), and the cells were cultured for 24 hours in a CO2 incubator. Then, a free glycerol level in a culture supernatant was measured using Adipolysis Assay Kit (Cat. No. 10009381, Cayman Chemical Co.) according to the manufacturer's protocol. For the measurement, absorbance (540 nm) was measured using a plate reader (VARIOSKAN FLASH, Thermo Fisher Scientific Inc.), and a relative free glycerol concentration was calculated. A differentiation medium supplemented with 10 μM isoproterenol (ISP) was used as a positive control, and a vehicle control (DMSO) composed of a differentiation medium supplemented with 0.1% DMSO (final concentration) and a no-addition control composed of only the differentiation medium were used as negative controls. Significant difference among the test groups to be compared (no-addition group vs positive control group, vehicle control group vs steviol addition group) was tested by the Student's t test. The two-tailed test was conducted, and P<0.05 was regarded as having significant difference.

## C=C1C[C@@]23CC[C@H]4[C@@](C)(CCC[C@@]4(C)C(=O)O)[C@@H]2CC[C@]1(O)C3 [Steviol, steviol]
HepG2 cells; 12.5 to 200 μg/mL
  fat accumulation in HepG2 test (in words): suppressed fat accumulation in adipocytes in a concentration-dependent manner
HepG2 cells; steviol 12.5 μg/mL
  Relative fat accumulation level (%): 98.9%
HepG2 cells; steviol 25 μg/mL
  Relative fat accumulation level (%): 98.1%
HepG2 cells; steviol 50 μg/mL
  Relative fat accumulation level (%): 86.4%
HepG2 cells; steviol 100 μg/mL
  Relative fat accumulation level (%): 85.6%
HepG2 cells; steviol 200 μg/mL
  Relative fat accumulation level (%): 83.0%
[1]; 10, 30 or 100 μg/mL
  lipolysis in adipocytes (in words): promoted lipolysis in adipocytes in a concentration-dependent manner
[1]; steviol 10 μg/mL
  Relative lipolysis level (%): 99.5%
[1]; steviol 30 μg/mL
  Relative lipolysis level (%): 115.5%
[1]; steviol 100 μg/mL
  Relative lipolysis level (%): 123.4%

— US20230057359A1, “NOVEL USE OF STEVIOL” (SUNTORY HOLDINGS LIMITED, priority 2019, published 2023)
